Experimental data from ChEMBL document CHEMBL1201862, “PubChem BioAssay data set” (2004).
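Following 48 hours of exposure in 96-well plates, responses at five concentrations were used to interpolate endpoints linearly. GI50: concentration for 50% inhibition of growth.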 Activity calls are given as the source filed them. No stated cut-off is given here; in the data, active = GI50 up to about 1.1 µM and inactive = higher. Non-standard residues stand in square brackets, D forms with d. Residues, ends and D or L forms follow the SMILES beside them.

Key:
Test in all cases: growth of human tumour cells (NCI), 48 h
BT-549 = test system: BT-549
DLD-1 = test system: DLD-1
HOP-18 = test system: HOP-18
KM-20L2 = test system: KM-20L2
M19-MEL = test system: M19-MEL
SNB-78 = test system: SNB-78
XF498 = test system: XF498
DMS-114 = test system: DMS-114

Measured: GI50

COc1ccc(N2C(=O)/C(=C\c3ccccc3)SC2c2cc(OC)c(OC)c(OC)c2)cc1 (configuration not stated)
inactive: BT-549 > 100 µM

CCC1C(=O)OCc2c1cc1n(c2=O)C(CC)c2c-1nc1ccccc1c2Cl (configuration not stated)
inactive: DLD-1 35.2 µM | HOP-18 20.3 µM | KM-20L2 31.3 µM | M19-MEL 32.4 µM | SNB-78 25.6 µM | XF498 24.8 µM

CCOc1ccc(NC(=O)CC2SC(N)=NC2=O)cc1 (configuration not stated)
inactive: DLD-1 > 100 µM | DMS-114 > 100 µM | KM-20L2 > 100 µM | M19-MEL > 100 µM | SNB-78 > 100 µM | XF498 > 100 µM

C[N+](C)(C)C.FC(F)(F)C1(C(F)(F)F)O[SiH-]2(OC(C(F)(F)F)(C(F)(F)F)c3ccccc32)c2ccccc21
inactive: DMS-114 14.1 µM | HOP-18 36.9 µM | KM-20L2 5.24 µM | M19-MEL 18.2 µM | SNB-78 13.2 µM

CCNC(C)Cc1ccccc1 (configuration not stated)
inactive: DLD-1 > 100 µM | DMS-114 > 100 µM | HOP-18 > 100 µM | KM-20L2 > 100 µM | SNB-78 > 100 µM

CC(C)(C)C1=CC(=N/N=c2\scc(-c3ccccc3)n2Cc2ccccc2)C=C(C(C)(C)C)C1=O
inactive: DMS-114 > 100 µM | KM-20L2 > 100 µM | M19-MEL > 100 µM | XF498 > 100 µM

CN/N=C(/Cc1occc(=O)c1O)C(=O)Nc1ccc(C)c(C)c1
inactive: DMS-114 > 100 µM | KM-20L2 > 100 µM | M19-MEL > 100 µM | SNB-78 60.1 µM

CN(Cc1ccccc1)C(=NC#N)N(C)Cc1ccccc1
inactive: DLD-1 > 100 µM | KM-20L2 > 100 µM | M19-MEL > 100 µM | SNB-78 > 100 µM

COc1cc2c3c(c4cc(OC)c(OC)cc4c2cc1OC)C(=O)C1CCC(=O)N1C3 (configuration not stated)
inactive: BT-549 14.8 µM

CC(=O)NCCC1CN(C(=O)/C=C\C#C[Si](C)(C)C)c2ccccc21 (configuration not stated)
inactive: BT-549 21 µM

CC1NC(=O)CC(c2ccccc2)N(N=O)C1c1ccccc1 (configuration not stated)
inactive: DLD-1 44.8 µM | HOP-18 52.2 µM | KM-20L2 21.4 µM | M19-MEL 55.7 µM | SNB-78 35.4 µM | XF498 25.8 µM

O=C1NC(=O)C2C(=O)NC(=O)C1C2(c1ccccc1)c1ccc(Cl)cc1 (configuration not stated)
inactive: DLD-1 > 100 µM | KM-20L2 > 100 µM | M19-MEL > 100 µM | SNB-78 > 100 µM | XF498 > 100 µM

Cc1ccc(S(=O)(=O)NCC2CCCCC2=O)cc1 (configuration not stated)
inactive: DMS-114 51.9 µM | HOP-18 > 100 µM | KM-20L2 > 100 µM | M19-MEL > 100 µM | SNB-78 > 100 µM | XF498 > 100 µM

CCOC(=O)C1=C(N)N(c2ccccc2)/C(=C(/C#N)c2nc3ccccc3[nH]2)S1
inactive: DLD-1 > 100 µM | KM-20L2 > 100 µM | M19-MEL > 100 µM | SNB-78 > 100 µM | XF498 > 100 µM

C=C1C(=O)C23C(O)CC4C5(C)CCCC4(C(O)OC5)C2C(OC(C)=O)CC1C3O (configuration not stated)
inactive: DLD-1 5.06 µM | DMS-114 4.51 µM | HOP-18 16.7 µM | KM-20L2 8.95 µM | M19-MEL 13.8 µM | SNB-78 6.03 µM

CC(=O)N/C=C/c1cc(O)ccc1O
inactive: DLD-1 27.2 µM | HOP-18 16.4 µM | KM-20L2 40.8 µM | M19-MEL 31.5 µM | SNB-78 > 47.8 µM | XF498 18.1 µM

CC(C)C[C@H](NC(=O)[C@H](CC(C)C)NC(=O)[C@@H](Cc1c[nH]c2ccccc12)NC(=O)[C@H](Cc1ccccc1)NC(=O)[C@@H](Cc1c[nH]c2ccccc12)NC(=O)[C@H](CCC(N)=O)NC(=O)[C@H](CCC(N)=O)NC(=O)[C@H]1CCCN1C(=O)[C@@H](N)CCCCN)C(N)=O (H-K[dP]QQ[dW]F[dW]LL-NH2)
inactive: DLD-1 > 100 µM | HOP-18 > 100 µM | KM-20L2 > 100 µM | M19-MEL > 100 µM | SNB-78 > 100 µM | XF498 > 100 µM
